Literature values, collected in patent US20170002355A1, “cGAP-PNA MULTIVALENT PEPTIDE NUCLEIC ACID LIGAND DISPLAY” (THE USA, AS REPRESENTED BY THE SECRETARY, DEPART- MENT OF …, priority 2014, published 2017).

Assays:
hA1AR = biological target: T1, hA1AR (Homo sapiens, UniProt P30542); settings: published literature values of XAC (Kecskes et al. 2011)
T1 construct: expressed in transfected cells
T1 sequence (P30542 1-326): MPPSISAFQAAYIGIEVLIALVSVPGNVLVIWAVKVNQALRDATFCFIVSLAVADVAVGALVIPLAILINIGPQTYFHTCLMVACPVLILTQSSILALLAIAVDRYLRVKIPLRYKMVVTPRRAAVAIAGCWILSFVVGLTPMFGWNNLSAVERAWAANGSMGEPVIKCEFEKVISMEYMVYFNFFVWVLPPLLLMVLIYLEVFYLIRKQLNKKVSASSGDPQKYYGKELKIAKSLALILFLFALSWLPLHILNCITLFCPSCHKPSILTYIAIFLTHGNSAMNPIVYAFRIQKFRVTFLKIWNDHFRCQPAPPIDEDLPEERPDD

hA3AR = biological target: T2, hA3AR (Homo sapiens, UniProt P0DMS8); settings: published literature values of XAC (Kecskes et al. 2011)
T2 construct: expressed in transfected cells
T2 sequence (P0DMS8 1-318): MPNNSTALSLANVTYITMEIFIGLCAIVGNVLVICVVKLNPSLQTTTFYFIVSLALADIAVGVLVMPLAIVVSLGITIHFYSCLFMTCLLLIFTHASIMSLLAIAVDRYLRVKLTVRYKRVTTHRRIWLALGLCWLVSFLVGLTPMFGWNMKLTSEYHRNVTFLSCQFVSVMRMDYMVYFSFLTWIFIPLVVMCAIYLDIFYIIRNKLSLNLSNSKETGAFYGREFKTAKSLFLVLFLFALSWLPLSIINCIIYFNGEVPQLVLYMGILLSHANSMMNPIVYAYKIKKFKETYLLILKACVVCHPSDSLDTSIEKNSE

SMILES: CCCn1c(=O)c2[nH]c(-c3ccc(OCC(=O)NCCN)cc3)nc2n(CCC)c1=O [XAC, N-(2-aminoethyl)-2-[4-(2,3,6,7-tetrahydro-2,6-dioxo-1,3-dipropyl-1H-purin-8-yl)phenoxy]-acetamide]
- A1:A2A selectivity, literature (hA1AR): 1.4
- A3:A2A selectivity, literature (hA3AR): 2.4
